Assay results: patent US11724078B2, “Methods and systems for trans-tissue substance delivery using plasmaporation” (GOJO INDUSTRIES, INC., priority 2016, dated 2023)

Assay: Transport of substance applied to plasma treated area through open pores in the SC
Settings: applied more than 5 minutes after plasma treatment

Substance: Dextran [10 kDa Dextran]
- passage through the SC when applied after 5 minutes: no longer passed through the SC
